Entries after “also recorded” stand apart in the source; their conditions may differ. Each block holds one molecule with its values, some of them ahead of it.
Legend:
[1] = tested on: BT-20 human breast cancer cells; assay: Uptake and intracellular levels of free and bound CN and PG/Iso-PG (intracellular metabolism of free and liposomal CN); format: in vitro ADME; settings: 24 hr
Experimental: At selected times the cells were washed (3×with PBS), trypsinized, pooled, and homogenized in 200 μl of isotonic saline. […] Antineoplaston components or their derivatives found in the supernatant are considered to be unbound or "free", while antineoplaston agents in the pellet are thought to be "bound" to protein or cellular structures easily pelleted by low gravity centrifugation. […] To better understand the time course of the intracellular fate of liposomal CN, BT-20 cells were exposed as in Example 5 to liposomal CN for 1, 2 and 4 hours.

[2] = tested on: cell growth; settings: in vitro, cited from earlier work
[3] = tested on: cell growth; assay: In vitro dose-response studies on individual components of antineoplaston therapy (cell growth); format: cell-based; settings: Homo sapiens; free compound; cell line not stated (uptake example in BT-20); read-out: IC50 (antineoplastic activity)
[4] = tested on: BT-20 cells; assay: Antineoplastic activity of free and liposomal CN (viable cell number, trypan blue); format: cell-based, human; settings: single administration, 800 uM; listed as free CN
Experimental: To determine whether this effect leads to enhanced antineoplastic activity, the antineoplastic activity of free and liposomal CN was examined in BT-20 cells. […] Control cells in the liposomal condition received the equivalent levels of liposomes without CN. Following a 24, 48 or 72 hr incubation, cells from six replicate wells were pooled and the number of viable cells determined using trypan blue and a hemocytometer.

[5] = tested on: BT-20 cells; assay: Cellular uptake of free and liposomal antineoplastons into BT-20 cells (reduction of media concentration, HPLC); settings: for level of uptake associated with equivalent antineoplastic activity (IC50): at IC50 concentration (~0.8 mM CN, 15 mM PN); for dependence of cellular uptake on media concentration: end of eight hour incubation; for uptake rate on second and third days / cellular uptake (qualitative): free compound; for uptake rate on second and third days: day two and three vs first day; for cellular uptake (qualitative): time course up to 72 hours
Experimental: The time-course and concentration dependency of the cellular uptake of free and liposomally formulated antineoplaston agents in Examples 2, 3 and 4 were assayed by monitoring reductions in media concentrations. The uptake of these antineoplaston agents were examined in BT-20 human breast cancer cells.
Cellular uptake of free D- and free L-CN (3-phenylacetyl-amino-2, 6, piperidinedione) were investigated in BT-20 cells. Cells were plated in 200 μl of media (3,000 cells/well--96 well plates), and 24 or 96 hrs later the plating media was replaced with fresh media containing free CN at final concentrations of 100, 300, 500, 800 μM. The levels of CN remaining in the media were determined following 0, 2, 4, 6, 8, 24, 48 and 72 hours of incubation. When the cellular uptake of liposomal antineoplastons was assessed, the total levels of liposomes were equivalent across all levels of the test agents.
At the indicated times after the addition of the test compound, the media was harvested, centrifuged (110 ×g; 10 min; 4° C.) and the supernatant stored at -70° C. until assayed using a validated HPLC method. For each test agent, all concentrations were tested at all time points and there were six replicate wells at each time point. Media from the replicate wells was pooled for the HPLC analysis. Compound levels were determined with at least two HPLC injections and the variance between injections was less than 10%.
Cellular uptake of free PN was investigated in BT-20 cells.
Cellular uptake of liposomal CN was investigated in BT-20 cells.

[6] = tested on: U87 cells; assay: Cellular uptake of free and liposomal PN and PG in U87 cells
Experimental: Experiments with this cell line plated 3000 cells per well and following a four day interval to allow the cells to enter the exponential growth phase the test agents were added. The media was replaced on day three and cell counts were obtained at day 3 and 7.

[7] = tested on: human glioblastoma (U87) cells; assay: Antineoplastic effect of free and liposomal AS2-1, PG and PN (cell counts); settings: U-87 MG, 72 h, read-out: IC50 (concentration producing a half maximal antineoplastic effect)

Uptake of CN ([1]; 800 μM CN (53 pmole/cell) added): 43.2 pmole/cell
Free intracellular PG/Iso-PG ([1]; 800 μM CN added): 36.7 pmole/cell
level of uptake associated with equivalent antineoplastic activity (IC50) [5]: ~ 30 pmoles/cell
dependence of cellular uptake on media concentration [5]: linearly related to media concentration
Structure (SMILES): O=C1CCC(NC(=O)Cc2ccccc2)C(=O)N1 (centres unmarked) [CN, 3-phenylacetyl-amino-2,6, piperidinedione]
Free intracellular CN ([1]; 800 μM, ND = Not detected): intact CN cannot be found inside the cells
suppression of cell growth ([2]; at ~0.8 mM): 50%
antineoplastic activity on a molar basis ([2]; relative to other components): most potent antineoplastic activity
IC50 [3]: ~0.8 mM
antineoplastic activity / suppression of BT-20 cell growth [4]: ineffective in suppressing BT-20 cell growth; also recorded: no antineoplastic activity
cellular uptake by 72 hours ([5]; 72 hours): approximating that produced by liposomal CN during a two hour incubation

cellular uptake (qualitative) [5]: rapidly and extensively taken up
Structure (SMILES): O=C1CC[C@@H](NC(=O)Cc2ccccc2)C(=O)N1 [D-CN]
uptake rate on second and third days [5]: do not exhibit this late stage reduction in CN uptake

cellular uptake during the first six hours ([5]; free D-CN vs free L-CN): more effectively than free D-CN
cellular uptake (qualitative) [5]: rapidly and extensively taken up
Structure (SMILES): O=C1CC[C@H](NC(=O)Cc2ccccc2)C(=O)N1 [L-CN]
uptake rate on second and third days [5]: the rate of uptake is diminished on the second and third days of the incubation

Structure (SMILES): O=C(O)Cc1ccccc1 [PN, phenylacetate]
uptake per cell ([6]; 30 mM free PN, U87 cells, 3 day): 50 pmol
uptake of free compound compared (PN vs PG) ([6]; 3 day interval): equivalent and is concentration dependent
IC50 [7]: ~15 mM
IC50 [3]: ~15 mM
uptake per cell ([5]; BT-20 cells, 30 mM, comparison value): ~ 55 pmole
level of uptake associated with equivalent antineoplastic activity (IC50) [5]: ~ 30 pmoles/cell
dependence of cellular uptake on media concentration [5]: linearly related to media concentration
cellular uptake (qualitative) [5]: concentration- and time-dependent take up
time to completion of uptake ([5]; high concentrations (e.g., 30 mM)): completed within the first two hours
cellular uptake ([5]; initial media concentration 30 mM): ~ 54 pmoles/BT-20 cell
cellular uptake ([5]; media concentration 3.0 mM): ~ 14 pmoles/BT-20 cell

Source: patent publication US6013278A (priority 1997, dated 2000)
